Measured values published in PubChem BioAssay AID1259407 (Chemical Carcinogenesis Research Information System (CCRIS), 2018).
Activity calls are given as the source filed them. How the calls were made is not given here.

Tested on: CCRIS mutagenicity, Ames/micronucleus/aberration tests
Experiment: CCRIS mutagenicity studies
[1] = Test System: AMES SALMONELLA TYPHIMURIUM, Strain/Indicator: TA98, Metabolic Activation: NONE, Method: STANDARD PLATE
[2] = Test System: AMES SALMONELLA TYPHIMURIUM, Strain/Indicator: TA98, Metabolic Activation: S-9, Method: STANDARD PLATE
[3] = Test System: AMES SALMONELLA TYPHIMURIUM, Strain/Indicator: TA100, Metabolic Activation: NONE, Method: STANDARD PLATE
[4] = Test System: AMES SALMONELLA TYPHIMURIUM, Strain/Indicator: TA100, Metabolic Activation: S-9, Method: STANDARD PLATE
[5] = Test System: AMES SALMONELLA TYPHIMURIUM, Strain/Indicator: TA1535, Metabolic Activation: NONE, Method: STANDARD PLATE

## O[Te](O)(O)(O)(O)O
End Point: IN VITRO MICRONUCLEUS, Test System: HUMAN PERIPHERAL LYMPHOCYTES, Metabolic Activation: NONE, Method: FISH (CENTROMERIC SIGNAL CONTENT)
  mutagenic call: active; positive

## O=[N+]([O-])c1ccc(/C=C/c2ccc(Cl)cc2)cc1
Test System: AMES SALMONELLA TYPHIMURIUM, Strain/Indicator: TA98 (NR), Metabolic Activation: NONE, Method: STANDARD PLATE
  mutagenic call: active; positive
Test System: AMES SALMONELLA TYPHIMURIUM, Strain/Indicator: TA98 (NR), Metabolic Activation: S-9, Method: STANDARD PLATE
  mutagenic call: active; positive
[1]
  mutagenic call: active; positive
[2]
  mutagenic call: active; positive
Test System: AMES SALMONELLA TYPHIMURIUM, Strain/Indicator: TA100 (NR), Metabolic Activation: NONE, Method: STANDARD PLATE
  mutagenic call: inactive; negative
Test System: AMES SALMONELLA TYPHIMURIUM, Strain/Indicator: TA100 (NR), Metabolic Activation: S-9, Method: STANDARD PLATE
  mutagenic call: inactive; negative
[3]
  mutagenic call: inactive; negative
[4]
  mutagenic call: active; positive

## c1cc2sncc2cc1OCC1CO1 (stereo not given)
[4]
  mutagenic call: active; positive

## CN(C)C(=O)/C=C/c1ccc([N+](=O)[O-])o1
Test System: AMES SALMONELLA TYPHIMURIUM, Strain/Indicator: TA98, Metabolic Activation: NONE, Method: PREINCUBATION
  mutagenic call: active; positive

## Cc1ccc2nsc(N)c2c1
[1]
  mutagenic call: inactive; negative
[2]
  mutagenic call: active; positive
[3]
  mutagenic call: inactive; negative
[4]
  mutagenic call: active; positive
[5]
  mutagenic call: inactive; negative
Test System: AMES SALMONELLA TYPHIMURIUM, Strain/Indicator: TA1535, Metabolic Activation: S-9, Method: STANDARD PLATE
  mutagenic call: inactive; negative
Test System: AMES SALMONELLA TYPHIMURIUM, Strain/Indicator: TA1537, Metabolic Activation: NONE, Method: STANDARD PLATE
  mutagenic call: inactive; negative
Test System: AMES SALMONELLA TYPHIMURIUM, Strain/Indicator: TA1537, Metabolic Activation: S-9, Method: STANDARD PLATE
  mutagenic call: active; positive

## Cc1cnc2c(n1)c(C)cc1c2nc(N)n1C
Test System: AMES SALMONELLA TYPHIMURIUM, Strain/Indicator: TA98, Metabolic Activation: RAT, LIVER, S-9, AROCLOR 1254, Method: STANDARD PLATE
  mutagenic call: active; positive

## CC(=O)c1ccc(NO)cc1
[3]
  mutagenic call: active; positive
[5]
  mutagenic call: inactive; negative
Test System: E. COLI, Strain/Indicator: WP2 UVRA(P), Metabolic Activation: NONE, Method: STANDARD PLATE
  mutagenic call: active; positive
Test System: E. COLI, Strain/Indicator: WP2 UVRA, Metabolic Activation: NONE, Method: FLUCTUATION TEST
  mutagenic call: inactive; negative
Test System: E. COLI, Strain/Indicator: WP2 UVRA, Metabolic Activation: NONE, Method: STANDARD PLATE
  mutagenic call: active; positive
